Laboratory results reported in US20220104493A1, “HERBICIDAL COMPOUNDS” (SYNGENTA CROP PROTECTION AG, priority 2019, published 2022).

How the values were obtained:
Format in all cases: in vivo
[1] = tested on: Chenopodium album (CHEAL); test: Post-emergence efficacy, Method A; details: 500 g/Ha, 100=total damage to plant, 0=no damage, evaluated after 7 and 14 days, read-out: Control of weed species after post-emergence application, CHEAL
Brassica napus (BRSNN) = test: Post-emergence efficacy, Method B
Method: (§1) Seeds of a variety of test species were sown in standard loam based soil in pots. Plants were cultivated from between 21 and 28 days (post-emergence) under controlled conditions in a glasshouse (at 24/16° C., day/night; 14 hours light; 65% humidity) for warm climate species and (at 20/16° C. day/night; 15 hours light; 65% humidity) for cool climate species.
(§2) The plants were sprayed with an aqueous spray solution derived from dissolving the technical active ingredient formula in a small amount of acetone and a special solvent and emulsifier mixture referred to as IF50 (11.12% Emulsogen EL360 TM+44.44% N-methylpyrrolidone+44.44% Dowanol DPM glycol ether), to create a 50 g/l solution which was then diluted to required concentration using 0.5% or 1% Empicol ESC70 (Sodium lauryl ether sulphate)+1% ammonium sulphate as diluent.
(§3) The delivery of the aqueous spray solution was via a laboratory track sprayer which delivered the aqueous spray composition at a rate of 200 litres per hectare, using a flat fan nozzle (Teejet 11002VS) and an application volume of 200 litre/ha (at 2 bar).
(§4) The test plants were then grown in a glasshouse under controlled conditions (at 24/16° C., day/night; 14 hours light; 65% humidity) for warm climate species and (at 20/16° C. day/night; 15 hours light; 65% humidity) for cool climate species and watered twice daily. After 7 and 14 days the test was evaluated (100=total damage to plant; 0=no damage to plant).
(§5) Brassica napus (BRSNN), Solanum turberosum (SOLTU), Glycine Max (GLXMA), and Helianthus annus (HELAN)

Glycine Max (GLXMA) = test: Post-emergence efficacy, Method B
Method: as §1, §2, §3, §4, §5

Helianthus annus (HELAN) = test: Post-emergence efficacy, Method B; details: second set of rows of Table C (evaluated after 7 and 14 days, day not printed)
Method: as §1, §2, §3, §4, §5

[2] = tested on: Solanum turberosum (SOLTU); test: Post-emergence efficacy, Method B
Method: as §1, §2, §3, §4, §5

Setaria faberi (SETFA) = test: Post-emergence efficacy, Method A; details: 500 g/Ha, 100=total damage to plant, 0=no damage, evaluated after 7 and 14 days, read-out: Control of weed species after post-emergence application, SETFA
Lolium perenne (LOLPE) = test: Post-emergence efficacy, Method A; details: 500 g/Ha, 100=total damage to plant, 0=no damage, evaluated after 7 and 14 days, read-out: Control of weed species after post-emergence application, LOLPE
[3] = tested on: Amaranthus palmeri (AMAPA); test: Post-emergence efficacy, Method A; details: 500 g/Ha, 100=total damage to plant, 0=no damage, evaluated after 7 and 14 days, read-out: Control of weed species after post-emergence application, AMAPA
Eleusine indica (ELEIN) = test: Post-emergence efficacy, Method A; details: 500 g/Ha, 100=total damage to plant, 0=no damage, evaluated after 7 and 14 days, read-out: Control of weed species after post-emergence application, ELEIN
[4] = tested on: Euphorbia heterophylla (EPHHL); test: Post-emergence efficacy, Method A; details: 500 g/Ha, 100=total damage to plant, 0=no damage, evaluated after 7 and 14 days, read-out: Control of weed species after post-emergence application, EPHHL
[5] = tested on: Digitaria sanguinalis (DIGSA); test: Post-emergence efficacy, Method A; details: 500 g/Ha, 100=total damage to plant, 0=no damage, evaluated after 7 and 14 days, read-out: Control of weed species after post-emergence application, DIGSA
[6] = tested on: Ipomoea hederacea (IPOHE); test: Post-emergence efficacy, Method A; details: 500 g/Ha, 100=total damage to plant, 0=no damage, evaluated after 7 and 14 days, read-out: Control of weed species after post-emergence application, IPOHE
[7] = tested on: Echinochloa crus-galli (ECHCG); test: Post-emergence efficacy, Method A; details: 500 g/Ha, 100=total damage to plant, 0=no damage, evaluated after 7 and 14 days, read-out: Control of weed species after post-emergence application, ECHCG
[8] = 50 g/Ha, first set of rows of Table C (evaluated after 7 and 14 days, day not printed)
[9] = 50 g/Ha, second set of rows of Table C (evaluated after 7 and 14 days, day not printed)
[10] = 150 g/Ha, first set of rows of Table C (evaluated after 7 and 14 days, day not printed)
[11] = 150 g/Ha, second set of rows of Table C (evaluated after 7 and 14 days, day not printed)
[12] = 600 g/Ha, first set of rows of Table C (evaluated after 7 and 14 days, day not printed)
[13] = 600 g/Ha, second set of rows of Table C (evaluated after 7 and 14 days, day not printed)

O=S(=O)([O-])C[n+]1ccc(-c2ncns2)cc1 [Compound A4, [4-(1,2,4-thiadiazol-5-yl)pyridin-1-ium-1-yl]methanesulfonate]
pest or weed control at 500 g/ha [1]: 100%
Control after post-emergence application, BRSNN (100=total damage to plant; 0=no damage to plant) (Brassica napus (BRSNN); [8]): 23
Control after post-emergence application, BRSNN (100=total damage to plant; 0=no damage to plant) (Brassica napus (BRSNN); [9]): 43
Control after post-emergence application, BRSNN (100=total damage to plant; 0=no damage to plant) (Brassica napus (BRSNN); [10]): 32
Control after post-emergence application, BRSNN (100=total damage to plant; 0=no damage to plant) (Brassica napus (BRSNN); [11]): 57
Control after post-emergence application, BRSNN (100=total damage to plant; 0=no damage to plant) (Brassica napus (BRSNN); [12]): 43
Control after post-emergence application, BRSNN (100=total damage to plant; 0=no damage to plant) (Brassica napus (BRSNN); [13]): 80
Control after post-emergence application, GLXMA (100=total damage to plant; 0=no damage to plant) (Glycine Max (GLXMA); [8]): 45
Control after post-emergence application, GLXMA (100=total damage to plant; 0=no damage to plant) (Glycine Max (GLXMA); [9]): 52
Control after post-emergence application, GLXMA (100=total damage to plant; 0=no damage to plant) (Glycine Max (GLXMA); [10]): 83
Control after post-emergence application, GLXMA (100=total damage to plant; 0=no damage to plant) (Glycine Max (GLXMA); [11]): 62
Control after post-emergence application, GLXMA (100=total damage to plant; 0=no damage to plant) (Glycine Max (GLXMA); [12]): 93
Control after post-emergence application, GLXMA (100=total damage to plant; 0=no damage to plant) (Glycine Max (GLXMA); [13]): 85
Control after post-emergence application, HELAN (100=total damage to plant; 0=no damage to plant) (Helianthus annus (HELAN); 50 g/Ha): 97
Control after post-emergence application, HELAN (100=total damage to plant; 0=no damage to plant) (Helianthus annus (HELAN); 150 g/Ha): 100
Control after post-emergence application, HELAN (100=total damage to plant; 0=no damage to plant) (Helianthus annus (HELAN); 600 g/Ha): 100
Control after post-emergence application, SOLTU (100=total damage to plant; 0=no damage to plant) [2, 8]: 15
Control after post-emergence application, SOLTU (100=total damage to plant; 0=no damage to plant) [2, 9]: 50
Control after post-emergence application, SOLTU (100=total damage to plant; 0=no damage to plant) [2, 10]: 30
Control after post-emergence application, SOLTU (100=total damage to plant; 0=no damage to plant) [2, 11]: 60
Control after post-emergence application, SOLTU (100=total damage to plant; 0=no damage to plant) [2, 12]: 82
Control after post-emergence application, SOLTU (100=total damage to plant; 0=no damage to plant) [2, 13]: 67
pest or weed control at 500 g/ha (Setaria faberi (SETFA)): 80%
pest or weed control at 500 g/ha (Lolium perenne (LOLPE)): 80%
pest or weed control at 500 g/ha [3]: 100%
pest or weed control at 500 g/ha (Eleusine indica (ELEIN)): 80%
pest or weed control at 500 g/ha [4]: 100%
pest or weed control at 500 g/ha [5]: 70%
pest or weed control at 500 g/ha [6]: 100%
pest or weed control at 500 g/ha [7]: 70%
